The text below walks through data of ChEMBL document CHEMBL1143219, “Proline bis-amides as potent dual orexin receptor antagonists” (Bioorg Med Chem Lett, 2008).

Bounds are passed on as bounds.

Data set [1] has as its target T1, Orexin receptor type 2 (Homo sapiens) (UniProt O43614).
T1 sequence (whole entry): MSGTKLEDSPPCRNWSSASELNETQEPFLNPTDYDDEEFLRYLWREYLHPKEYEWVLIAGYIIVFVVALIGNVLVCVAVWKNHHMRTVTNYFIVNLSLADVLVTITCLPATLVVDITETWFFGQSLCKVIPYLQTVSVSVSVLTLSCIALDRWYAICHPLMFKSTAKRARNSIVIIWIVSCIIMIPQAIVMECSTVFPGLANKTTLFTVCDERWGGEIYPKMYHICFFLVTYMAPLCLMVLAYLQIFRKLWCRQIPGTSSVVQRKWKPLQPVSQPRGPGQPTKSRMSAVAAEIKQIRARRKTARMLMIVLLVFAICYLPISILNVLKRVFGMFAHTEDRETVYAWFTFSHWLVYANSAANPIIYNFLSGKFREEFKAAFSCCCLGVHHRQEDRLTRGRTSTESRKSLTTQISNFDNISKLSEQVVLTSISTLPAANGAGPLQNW
Description: Antagonist activity at human OX2R expressed in CHOK1 cells assessed as effect on calcium mobilization. Type of data set: functional, cell-based. To be noted: CHO-K1. (Calcium flux is commonly read through the fluorescence of an indicator in the cells.)

Data set [2] addresses T2, Orexin/Hypocretin receptor type 1 (Homo sapiens, UniProt O43613).
T2 sequence (O43613 whole entry): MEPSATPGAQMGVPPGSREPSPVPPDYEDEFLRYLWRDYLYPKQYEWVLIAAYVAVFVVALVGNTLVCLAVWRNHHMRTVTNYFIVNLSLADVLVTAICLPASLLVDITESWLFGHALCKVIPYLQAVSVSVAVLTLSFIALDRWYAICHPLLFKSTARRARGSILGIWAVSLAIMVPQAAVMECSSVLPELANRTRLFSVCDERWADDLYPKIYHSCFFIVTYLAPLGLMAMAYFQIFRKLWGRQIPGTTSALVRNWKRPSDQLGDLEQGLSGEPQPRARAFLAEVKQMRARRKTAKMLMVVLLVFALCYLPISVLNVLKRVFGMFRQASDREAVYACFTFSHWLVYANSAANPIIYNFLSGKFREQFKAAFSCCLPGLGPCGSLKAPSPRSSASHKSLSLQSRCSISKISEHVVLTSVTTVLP
The data set can be described thus: Displacement of [3H](S)-1-[2-(1-methyl-1H-benzoimidazol-2-ylsulfanyl)-acetyl]-pyrrolidine-2-carboxylic acid biphenyl-2-ylamide from human OX1R expressed in CHO cells. Type of data set: cell-based. For orientation: Loss of bound radioactivity is the signal in a displacement assay; it reports binding, not function.

The target in a further data set is T3, Orexin receptor type 2 (Homo sapiens, UniProt O43614).
T3 sequence (O43614 whole entry): T1 sequence (whole entry)
Description: Displacement of [3H](S)-N-(2-(1H-pyrrol-1-yl)phenyl)-1-(2-(1-methyl-1H-benzo[d]imidazol-2-ylthio)acetyl)pyrrolidine-2-carboxamide from human OX2R expressed in CHO cells. Type of data set: cell-based.

Data set [3] is described as follows: Half life in rat. The data set is classed as ADME, organism-based. The note with it: in vivo.
Data set [4] in a line: Inhibition of sodium channel at site 2.
Data set [5] has as its target T4, Thyrotropin-releasing hormone receptor (Homo sapiens) (UniProt P34981).
T4 sequence (whole entry): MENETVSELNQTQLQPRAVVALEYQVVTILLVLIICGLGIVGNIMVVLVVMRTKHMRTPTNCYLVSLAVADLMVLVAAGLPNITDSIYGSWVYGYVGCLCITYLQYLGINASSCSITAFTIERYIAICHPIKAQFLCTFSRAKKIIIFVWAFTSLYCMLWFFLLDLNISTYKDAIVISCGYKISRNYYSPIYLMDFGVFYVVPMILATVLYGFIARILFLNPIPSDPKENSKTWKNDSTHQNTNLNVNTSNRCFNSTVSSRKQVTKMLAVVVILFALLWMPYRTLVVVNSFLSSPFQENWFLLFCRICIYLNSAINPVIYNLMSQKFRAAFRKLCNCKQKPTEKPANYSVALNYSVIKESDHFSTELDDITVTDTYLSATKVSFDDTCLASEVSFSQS
The data set can be described thus: Inhibition of TRH receptor.

Data set [6] deals with T5, Orexin/Hypocretin receptor type 1 (Rattus norvegicus) (UniProt P56718).
T5 sequence (whole entry): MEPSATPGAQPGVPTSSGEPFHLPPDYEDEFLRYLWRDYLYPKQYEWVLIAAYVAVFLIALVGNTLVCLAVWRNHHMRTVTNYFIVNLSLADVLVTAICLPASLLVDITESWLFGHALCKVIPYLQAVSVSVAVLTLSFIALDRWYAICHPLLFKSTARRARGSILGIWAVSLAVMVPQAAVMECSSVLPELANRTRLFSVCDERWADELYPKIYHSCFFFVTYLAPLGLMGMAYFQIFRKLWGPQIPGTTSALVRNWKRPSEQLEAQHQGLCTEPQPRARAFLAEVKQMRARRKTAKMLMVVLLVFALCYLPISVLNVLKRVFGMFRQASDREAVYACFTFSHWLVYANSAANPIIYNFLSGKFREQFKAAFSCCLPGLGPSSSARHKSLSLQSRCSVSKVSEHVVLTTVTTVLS
The data set can be described thus: Antagonist activity at rat OX1R assessed as effect on calcium mobilization. Type of data set: functional.

Data set [7] in a line: Drug level in rat plasma at 100 mg/kg, ip after 30 mins. Type of data set: ADME, organism-based. Details: dose 100 mg/kg, route intraperitoneal.
The test system of the next data set is Rattus norvegicus. Description: Inhibition of ADL-orexin-B-induced increase in locomotion activity in ip dosed rat. The data set is classed as functional, organism-based.
The nature of data set [8]: Clearance in rat. To be noted: in vivo. The data set is classed as ADME, organism-based.
In data set [9] the target is T6, Thromboxane A2 receptor (Homo sapiens) (UniProt P21731).
T6 sequence (whole entry): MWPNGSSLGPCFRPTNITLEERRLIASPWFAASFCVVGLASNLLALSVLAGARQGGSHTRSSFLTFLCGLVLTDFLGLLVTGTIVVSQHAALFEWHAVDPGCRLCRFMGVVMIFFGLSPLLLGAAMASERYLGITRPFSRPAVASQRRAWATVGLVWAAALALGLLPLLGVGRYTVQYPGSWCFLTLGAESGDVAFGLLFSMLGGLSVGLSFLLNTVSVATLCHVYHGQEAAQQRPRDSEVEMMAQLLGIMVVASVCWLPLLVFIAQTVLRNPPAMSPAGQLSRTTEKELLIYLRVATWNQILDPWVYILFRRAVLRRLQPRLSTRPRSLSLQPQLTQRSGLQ
The data set can be described thus: Inhibition of thromboxane A2 receptor.

A short description of data set [10]: Drug level in rat cerebrospinal fluid at 100 mg/kg, ip after 30 mins. Type of data set: ADME, organism-based. Details: dose 100 mg/kg, route intraperitoneal. The note with it: read-out: Drug uptake.
A short description of data set [11]: Oral bioavailability in rat. Type of data set: ADME, organism-based. To be noted: in vivo.
A short description of data set [12]: Drug level in rat brain at 100 mg/kg, ip after 30 mins. Type of data set: ADME, organism-based. Also on record: dose 100 mg/kg, route intraperitoneal. The note with it: read-out: Drug uptake.
The nature of data set [13]: Inhibition of prostanoid receptor.
The target of data set [14] is Synaptic vesicular amine transporter (Homo sapiens) (UniProt Q05940). The data set can be described thus: Inhibition of monoamine transporter.
Data set [15] in a line: Partition coefficient, log P of the compound. The data set is classed as physicochemical. The note with it: octanol/water.

Synaptic vesicular amine transporter (Homo sapiens), sequence (Q05940 whole entry): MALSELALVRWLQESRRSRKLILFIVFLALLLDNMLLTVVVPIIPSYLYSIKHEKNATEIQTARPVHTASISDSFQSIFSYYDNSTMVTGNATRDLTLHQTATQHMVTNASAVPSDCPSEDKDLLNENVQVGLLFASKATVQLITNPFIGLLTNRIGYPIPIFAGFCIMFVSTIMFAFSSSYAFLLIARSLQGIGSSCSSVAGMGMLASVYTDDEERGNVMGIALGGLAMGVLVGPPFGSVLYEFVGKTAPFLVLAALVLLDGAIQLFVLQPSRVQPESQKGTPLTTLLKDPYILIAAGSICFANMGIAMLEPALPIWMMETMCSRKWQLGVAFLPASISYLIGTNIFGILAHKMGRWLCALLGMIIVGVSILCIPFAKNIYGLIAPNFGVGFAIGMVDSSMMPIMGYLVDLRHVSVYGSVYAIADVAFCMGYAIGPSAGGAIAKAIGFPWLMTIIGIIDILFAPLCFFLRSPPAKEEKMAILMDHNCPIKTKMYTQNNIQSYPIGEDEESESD

Turning to `O=C(Nc1ccccc1-n1cccc1)[C@@H]1CCCN1C(=O)CSc1nc2ccccc2o1`, in data set [1], the Activity is 28 nM. Moreover, the results for the Ki (in data set [2]; at Orexin receptor type 2) were 120 nM and 8 nM, respectively.
Taken in the same sequence, the figures for `O=C(Nc1ccccc1-c1ccccc1)[C@@H]1CCCN1C(=O)CSc1nc2ccccc2[nH]1` were 7 nM, 10 nM and 0.6 nM.
On the same counts, the results for `O=C(Nc1ccc(-c2ccccc2)cc1)[C@@H]1CCCN1C(=O)CSc1nc2ccccc2[nH]1` are 143 nM, 2300 nM and 11 nM.
On the same counts, the results for `O=C(Nc1ccccc1-c1ccccc1F)[C@@H]1CCCN1C(=O)CCc1nc2ccccc2[nH]1` are 4 nM, 27 nM and 3 nM.
Consider `Cc1ccc2c(c1)nc(SCC(=O)N1CCC[C@H]1C(=O)Nc1ccccc1-n1cccc1)n2C`, for which, in data set [1], the Activity was 8 nM. The Ki in data set [2] was found to be 0.7 nM; at Orexin receptor type 2, 0.09 nM.
As for `O=C(Nc1ccccc1-n1cccc1)[C@H]1CCCN1C(=O)CSc1nc2ccccc2[nH]1`, the inhibition constant (Ki) came to 2500 nM in data set [2] and 131 nM at Orexin receptor type 2.
Take `O=C(Nc1ccccc1)[C@@H]1CCCN1C(=O)CSc1nc2ccccc2[nH]1`: in data set [1], the Activity worked out at 4050 nM. The inhibition constant Ki in [2] was found to be 1400 nM; at Orexin receptor type 2, 560 nM.
Taken in the same sequence, the figures for `O=C(Nc1ccccc1-n1cccc1)[C@@H]1CCCN1C(=O)CSc1nc2ccccc2[nH]1` were 6 nM, 28 nM and 1 nM.
Taken in the same sequence, the figures for `O=C(Nc1ccccc1Oc1ccccc1)[C@@H]1CCCN1C(=O)CSc1nc2ccccc2[nH]1` were 16 nM, 69 nM and 3 nM.
`Cn1c(CCC(=O)N2CCC[C@H]2C(=O)Nc2ccccc2-c2ccccc2)nc2ccccc21`: the Activity in [1] was 5 nM; in [4], below 10 µM; in [5], below 10 µM. Besides, the inhibition constant (Ki) in data set [2] is 15 nM; on Orexin receptor type 2, 0.8 nM. The compound also gave a half-life in data set [3] of 18 min.
As to `O=C(Nc1cccc(-c2ccccc2)c1)[C@@H]1CCCN1C(=O)CSc1nc2ccccc2[nH]1`, the Activity in data set [1] was 2640 nM. The Ki amounted to 500 nM in data set [2] and 280 nM at Orexin receptor type 2.
For the compound `Cc1ccc2nc(SCC(=O)N3CCC[C@H]3C(=O)Nc3ccccc3-n3cccc3)[nH]c2c1`, the inhibition constant (Ki) worked out at 3 nM in data set [2] and 0.2 nM on Orexin receptor type 2.
For the compound `O=C(Nc1ccccc1-n1cccc1)[C@@H]1CCCN1C(=O)CSc1nc2ccccc2s1`, the Activity in data set [1] is 11 nM. The inhibition constant Ki in data set [2] was 39 nM; on Orexin receptor type 2, 2 nM.
Turning to `O=C(Nc1ccccc1-n1cccc1)[C@@H]1CCCN1C(=O)CCc1nc2ccccc2[nH]1`, the figures for the Activity in data set [6] and in data set [1] were 520 nM and 36 nM, respectively. In addition, the figures for the inhibition constant Ki (in data set [2]; at Orexin receptor type 2) were 130 nM and 11 nM, respectively.
Regarding `Cc1ccc2nc(SCC(=O)N3CCC[C@H]3C(=O)Nc3ccccc3-n3cccc3)n(C)c2c1`, the Activity in data set [1] was determined as 8 nM. The inhibition constant (Ki) in [2] was found to be 2 nM; at Orexin receptor type 2 it was 0.1 nM.
For `Cn1c(SCC(=O)N2CCC[C@H]2C(=O)Nc2ccccc2-c2ccccc2)nc2ccccc21`, the concentration at 0.5 h in [7] worked out at 3500 nM; in data set [10], 43 nM; in [12], 2370 nM. Further, the Activity in [1] was 4 nM; with Rattus norvegicus, “Dose-dependent effect”; in data set [9], below 10 µM; in data set [13], below 10 µM; in [14] it was below 10 µM. Besides, in [8], the clearance is 3.7 mL/min/kg. The same compound showed a half-life in data set [3] of 18 min. Further, the bioavailability in data set [11] stood at 11%. The same compound showed a Ki at Orexin receptor type 2 of 0.2 nM. In addition, in data set [15], the logP stood at 3.4.
`Cn1c(CCC(=O)N2CCC[C@H]2C(=O)Nc2ccccc2-n2cccc2)nc2ccccc21`: the Activity in data set [1] is 3 nM. Also, the Ki in [2] turned out to be 49 nM; at Orexin receptor type 2, 2 nM.
Consider `COc1ccccc1-c1ccccc1NC(=O)[C@@H]1CCCN1C(=O)CCc1nc2ccccc2[nH]1`, for which the Activity in data set [1] is 5 nM. Further, the inhibition constant (Ki) came out at 86 nM in data set [2] and 2 nM at Orexin receptor type 2.
Taken in the same sequence, the figures for `O=C(Nc1ccccc1-c1ccccc1)[C@@H]1CCCN1C(=O)CCc1nc2ccccc2[nH]1` were 20 nM, 40 nM and 6 nM.
On the same counts, the results for `Cn1c(SCC(=O)N2CCC[C@H]2C(=O)Nc2ccccc2-n2cccc2)nc2ccccc21` are 2 nM, 9 nM and 0.3 nM.
In the case of `Cc1ccc2[nH]c(SCC(=O)N3CCC[C@H]3C(=O)Nc3ccccc3-n3cccc3)nc2c1`, the Activity in data set [1] was determined as 2 nM.

Broadly, the Ki is a dissociation constant, usually derived from enzyme kinetics or from competition with a known ligand. Read a low Ki as tighter binding. In general, half-life refers to the time needed for the level to fall by half in the phase considered. Higher therefore signals slow decline. Broadly, the clearance is a measure of how efficiently the substance is removed, as volume per time. Low readings indicate inefficient removal, high ones efficient removal. The bioavailability is dose-corrected exposure relative to a reference, in per cent. Low values mean poor availability, high ones good availability. As a reminder, the logP is a log measure of how a compound divides between an organic and an aqueous phase.
